Data on five compounds can be found in patent US20250288543A1, “METHODS OF ENHANCING BENEFICIAL SHORT-CHAIN AND MEDIUM-CHAIN FATTY ACIDS PRODUCTION BY GUT MICROBIOME” (Arizona Board of Regents on Behalf of Arizona State …, priority 2024, published 2025).

The conditions of assay [1]: mechanism related to vagal afferent; cited from earlier work.
The conditions of assay [2]: rat model of diabetes, hexanoate as sole FA source; cited from earlier work.
The test system of another assay is human colon microbiome. The assay is described as follows: In vitro bioreactors inoculated with human feces: chain elongation of acetate with ethanol or lactate to butyrate and caproate. The assay is classed as cell-based. To be noted: for Methane concentrations: bioreactor headspace, over 7 days, FIG. 4; for Production of MCFAs: pH 6.5 (descending colon), higher concentrations; for SCFA and MCFA production: varied conditions of the large intestine (pH 5.5 and 6.5), FIGS. 6A-6P. From the text:
In microbial chain elongation, acetate, an abundant short-chain fatty acid in the colon, is elongated via reverse β-oxidation using a more reduced compound, such as ethanol or lactate to butyrate, caproate, and caprylate (C8). FIG. 1 depicts known microbial pathways for production of butyrate in the human colon. FIG. 2 depicts a proposed pathway for production of butyrate (and caproate). In vitro bioreactors were setup using feces composited from multiple human donors. Gas composition in the bioreactors' headspace was analyzed for H2, CO2, and CH4 using gas chromatography (GC). The concentrations of volatile fatty acids (VFAs), lactate, ethanol, were measured using high performance liquid chromatography (HPLC). 16S rRNA gene from Bacteria and Archaea was sequenced using the PacBio. The ability of the human colon microbiome to carry out chain elongation reactions was probed in bioreactor experiments. Bioreactors consisted of 120 mL glass serum bottles containing 50 mL of reduced anaerobic mineral medium prepared using the Hungate technique. The medium contained the following stock solutions per liter: 10 mL of salts, 1 mL of trace element A, 1 mL of trace element B, and 1 mL of vitamin mix. Sodium sulfide nonahydrate (0.2 mM) and L-cysteine (0.4 mM) were used as reducing agents. The medium was buffered with 15 mM 4-(2-hydroxyethyl)-1-piperazineethanesulfonic acid (HEPES) and 15 mM sodium bicarbonate. The medium pH was adjusted to 5.5 or 6.5 using a 10 N NaOH solution. The medium was bottled using a gas composition of 20% CO2 and 80% N2. The experimental conditions and controls are shown in Table 1 and were tested in triplicate. The tested concentrations of short-chain fatty acids (60 mM acetate, 20 mM propionate, 20 mM butyrate) are within the typical range detected in the human colon. For ethanol and lactate (electron donors in chain elongation), we tested 4 mM, a low but physiological relevant concentration and a high concentration of 40 mM. The high concentration of ethanol (40 mM) was selected based on existing chain elongation literature (Yin et al. 2017; Coma et al. 2016; […], and Buisman 2008; Robles et al. 2021; Joshi et al. 2021) and was strategically employed to enhance the activity of putative chain-elongating microorganisms. […] The slurry was prepared by mixing one-part reduced anaerobic mineral medium and one-part feces from a composite sample containing fecal samples from multiple healthy donors as described in the Supporting Information. In one condition, the fecal slurry was filtered through a 200 μm filter before inoculation. In condition with 60 mM acetate+40 mM ethanol+MCE culture at pH 6.5, a chain elongation culture derived from soil (Joshi et al. 2021) was also inoculated. The pH was measured using 0.5 mL samples using an OrionTM Versa Star ProTM Benchtop pH Meter (Thermo Scientific, Waltham, MA, USA) equipped with an Orion economy series pH electrode. The pH meter was calibrated with Orion pH 4.01, 7.00, and 10.01 standard solutions. Samples for HPLC consisted of 0.5 mL of supernatant from bioreactors filtered through a 0.2 μm PDVF filter (MDI Membrane Technologies, Harrisburg, PA, USA). The concentrations of formate, acetate, propionate, isobutyrate, butyrate, isovalerate, valerate, isocaproate, caproate, heptanoate, lactate, ethanol, butanol, and hexanol were determined using a high-performance liquid chromatograph (HPLC, Agilent, Santa Clara, CA, USA) with a photodiode array detector (DAD) set at 210 nm and a refractive index detector (RID). The HPLC was fitted with an Aminex HPX-87H column 300×7.8 mm (Bio-Rad Laboratories, Hercules, CA, USA) and operated with an eluent of 2.5 mM H2SO4 at a flow rate of 0.6 mL per minute for a duration of 80 minutes. The oven temperature was constant at […]. The calibration range for fatty acids was 0.25-10 mM, and the calibration range for the alcohols was 2.5-50 mM. […]

[3] abbreviates: physiologically relevant concentration of ethanol and lactate, FIGS. 5A and 5B.

SMILES strings stand for the structures.

Regarding `CC(=O)O` [acetate], the “Efficacy in suppressing food intake (rank order)” value in assay [1] is “butyrate>propionate>acetate”.

Take `CCCCCC(=O)O` [caproic, caproic acid]: the “Contractile function of hearts perfused with glucose alone” value in assay [2] is reported as “normalized contractile function”.

In the case of `CCO` [ethanol], the “Conversion of acetate and ethanol to butyrate and caproate via chain elongation, time of occurrence” value with human colon microbiome (acetate + ethanol, fecal bioreactors, FIGS. 3A and 3B) was “within one day”. Further, in the assay with human colon microbiome (acetate + ethanol, feces filtered to remove larger particles, FIGS. 3C and 3D), the “Chain elongation activity with filtered feces” value is given as “did not affect the chain elongation activity”. Besides, in the assay on human colon microbiome, the Methane concentrations entry is “higher at higher concentrations”; the “Production of MCFAs” value is “significant increase”; the “SCFA and MCFA production” value is on record as “successfully increases”. In the assay on human colon microbiome (setting [3]), the “Butyrate production via chain elongation” value is “occurred” and the Caproate production entry is reported as “caproate was produced only when ethanol was the electron donor”.

In the case of `CC(O)C(=O)O` (stereo not shown) [lactate], in the assay on human colon microbiome (acetate + lactate, FIG. 3B), the “Metabolites produced with lactate as the electron donor” value was “metabolic shift was observed towards propionate and butyrate production”. Also, in the assay with human colon microbiome, the Methane concentrations entry is on record as “higher at higher concentrations”; the “Production of MCFAs” value is given as “significant increase”; the “SCFA and MCFA production” value was “successfully increases”. Also, in the assay on human colon microbiome (pH 5.5 (ascending colon)), the “Production of butyrate and other SCFAs via chain elongation” value is “a better substrate”. In the assay with human colon microbiome (setting [3]), the “Butyrate production via chain elongation” value was “occurred”.

Turning to `CCC(=O)O` [propionate], in assay [1], the “Efficacy in suppressing food intake (rank order)” value is “butyrate>propionate>acetate”.
